# Experimental data reported in patent US20250140406A1, “CLASSIFYING TUMORS AND PREDICTING RESPONSIVENESS” (Oncocyte Corporation, priority 2022, published 2025).
# Where two headings read alike, the source gives them in different places.
# Experiments:
# Assay type in all cases: cell-based
# cancer cell lines = experiment: Correlation of gene expression with PRISM compound sensitivity across cell lines (gene:compound correlate pairs)
# Protocol: This list of genes (based upon gene expression and gene dependency) was analyzed by Pearson correlation with the compound sensitivity data across the training cell lines. Correlation values, p values, q values and local false discovery rates were calculated. This analysis was repeated using the same set of compounds and genes on the test set of cell lines.
# A negative correlation means that the importance of the expression of that gene to cell health was linked to increased compound sensitivity. • compound gene dep train pvalue: Measure of significance for this association. • compound gene dep test corr: Correlation of gene dependency with compound sensitivity in the test data set. • TNBCType train: Classification of association of the compound sensitivity with the IM, MSL and M cell line classes in the training data set. • DTIO Corr train: Association of the compound sensitivity with the DetermaIO cell line classes in the training data set. • TNBCType test: Classification of the association of the compound sensitivity with the IM, MSL and M cell line classes in the test data set. • DTIO Corr test: Association of the compound sensitivity with the DetermaIO cell line classes in the test data set.
# [1] = tested on: cancer cell lines classified IM, MSL, M; experiment: PRISM screen compound sensitivity correlated with IM, MSL and M subtype of cell lines (101 gene signature); details: for TNBCType train: 101 gene signature
# [2] = tested on: cancer cell lines, DetermaIO classes; experiment: Association of PRISM compound sensitivity with DetermaIO (DTIO) cell line classes
# [3] = correlation of PRISM compound sensitivity with IM subtype correlation, test cell set (188 cell lines)
# [4] = correlation of PRISM compound sensitivity with M subtype correlation, test cell set (188 cell lines)
# [5] = correlation of PRISM compound sensitivity with MSL subtype correlation, test cell set (188 cell lines)
# [6] = correlation of PRISM compound sensitivity with DTIO (DetermaIO), test cell set (188 cell lines)
# [7] = correlation of PRISM compound sensitivity with DTIO (DetermaIO), training cell set (371 cell lines)
# [8] = correlation of compound sensitivity with DetermaIO (DTIO), test set
# [9] = correlation of compound sensitivity with DetermaIO (DTIO), training set
# [10] = correlation of PRISM compound sensitivity with DTIO, test cell set
# [11] = correlation of PRISM compound sensitivity with DTIO, training cell set
# [12] = correlation of PRISM compound sensitivity with IM subtype correlation, test cell set
# [13] = correlation of PRISM compound sensitivity with M subtype correlation, test cell set
# [14] = correlation of PRISM compound sensitivity with MSL subtype correlation, test cell set
# [15] = subtype (IM, MSL or M) with which PRISM compound sensitivity is negatively correlated, training cell set
# [16] = subtype (IM, MSL or M) with which compound sensitivity is negatively correlated, training cell set (371 cell lines)
Molecule,"IM Corr test [1, 3]","M Corr test [1, 4]","MSL Corr test [1, 5]","DTIO Corr test [2, 10]","DTIO Corr train [2, 11]",also measured
Cc1cc(CN2CCN(c3c(Br)cnc4nc(-c5ccc(N6CCN(C)CC6)cc5)[nH]c34)CC2)no1 [CCT137690],−0.03424,−0.09289,−0.02426,,,compound gene train corr (cancer cell lines): −0.1607
COc1cc2c(NC3CCN(C(C)C)CC3)nc(N3CCC(F)(F)CC3)nc2cc1OCCCN1CCCC1 [UNC0642],−0.2049,0.1456,0.1789,,,"compound gene test corr (cancer cell lines): −0.295; compound gene train corr (cancer cell lines): −0.1787; DTIO Corr test [2, 6]: −0.1219; DTIO Corr train [2, 7]: −0.0704; DTIO Corr test [2, 8]: −0.1219; DTIO Corr train [2, 9]: −0.0704"
CCOC(=O)c1ncc2[nH]c3ccc(OCc4ccccc4)cc3c2c1COC.Cl [ZK-93423],,,,0.1767,0.1098,"compound gene test corr (cancer cell lines): −0.2447; compound gene train corr (cancer cell lines): −0.1712; DTIO Corr test [2, 8]: 0.1767; DTIO Corr train [2, 9]: 0.1098; IM Corr test [1, 12]: 0.2068; M Corr test [1, 13]: −0.1479; MSL Corr test [1, 14]: −0.01274"
Cc1occc(=O)c1[O-].Cc1occc(=O)c1[O-].[O]=[V+2] [bis(maltolato)oxovanadium(IV)],,,,,,compound gene train corr (cancer cell lines): −0.1081
COc1ccc(-c2cc(=O)c3c(OC)c(OC)c(OC)c(OC)c3o2)cc1 [tangeritin],,,,−0.01838,−0.09411,"IM Corr test [1, 12]: −0.06559; M Corr test [1, 13]: 0.04891; MSL Corr test [1, 14]: −0.06252"
c1cc2c(cc1C1CCCCC1)c1c3n2CCNC3CCC1 (stereo not drawn) [tetrindole],−0.02376,0.06046,0.06072,−0.04907,−0.09692,
CCN=C1N[C@@H]2[C@@H](O)[C@H](O)[C@@H](CO)O[C@@H]2S1 [thiamet-g],,,,0.003014,0.08206,"IM Corr test [1, 12]: −0.00247; M Corr test [1, 13]: −0.01394; MSL Corr test [1, 14]: −0.01406; TNBCType train [1, 15]: MSL"
O=C(NCc1ccccc1)c1csc(Nc2ccncn2)n1 [thiazovivin],0.0391,−0.1082,−0.2135,0.04845,0.03374,"TNBCType train [1, 16]: MSL"
C[CH2][Hg][S]c1ccccc1C(=O)[O-].[Na+] [thiomersal],0.1417,−0.2551,−0.1237,,,"DTIO Corr test [2, 6]: 0.0287; DTIO Corr train [2, 7]: −0.05708; DTIO Corr test ([2]; correlation of compound sensitivity with DTIO, test set): 0.0287; DTIO Corr train ([2]; correlation of compound sensitivity with DTIO, training set): −0.05708"
COc1cc(C[C@@H]2NCCc3cc(O)c(O)cc32)cc(OC)c1OC [trimethoquinol],−0.06802,−0.00108,−0.05303,−0.05537,−0.0983,"TNBCType train [1, 16]: MSL"
COc1cc2ncnc(Nc3cccc(Cl)c3)c2cc1OC [tyrphostin-AG-1478],−0.09525,0.2259,0.3434,,,"DTIO Corr test [2, 6]: 0.02894; DTIO Corr train [2, 7]: −0.0761"
CN[C@H]1CN(c2ccc3c(=O)c(C(=O)O)cn(-c4nccs4)c3n2)C[C@@H]1OC [voreloxin],,,,0.01495,−0.04486,"IM Corr test [1, 12]: 0.02919; M Corr test [1, 13]: −0.09678; MSL Corr test [1, 14]: −0.06474; TNBCType train [1, 15]: MSL"
Cc1nn(C)c2c1C(c1cccc(Cl)c1)=NCCN2 [zometapine],−0.1347,0.04602,−0.04215,−0.08271,0.09146,"TNBCType train [1, 16]: MSL"
PF-477736,0.05795,−0.1644,−0.1066,−0.03209,−0.01779,
Ro-25-6981,,,,−0.1247,−0.07012,"IM Corr test [1, 12]: −0.1513; M Corr test [1, 13]: 0.04707; MSL Corr test [1, 14]: −0.0147"
iodoquinol,0.03942,−0.09894,−0.104,,,"DTIO Corr test [2, 6]: 0.03163; DTIO Corr train [2, 7]: −0.06766; TNBCType train ([1]; subtype (IM, MSL or M) assigned to the compound by negative correlation of PRISM sensitivity with subtype, training cell set (371 cell lines)): MSL"
repsox,,,,,,DTIO Corr test [2]: −0.03254; DTIO Corr train [2]: −0.05665; IM Corr test [1]: −0.07924; M Corr test [1]: 0.1062; MSL Corr test [1]: 0.08697
salvianolic-acid-B,0.001211,−0.08646,−0.06128,0.002256,−0.1092,"TNBCType train [1, 16]: MSL"
